# Laboratory results published in patent US4002740A, “Tridecapeptide compositions and methods” (priority 1975, dated 1977).
# “Also recorded” adds a separate entry of the source. Ends that are not written are not given here.
# Key:
# [1] = system: Thy-1+ T cell differentiation from prothymocytes (spleen cell populations from nu/nu mice); assay: induction in vitro of Thy-1+ T cell differentiation from prothymocytes (acquisition of Thy-1.2 as marker); type: cell-based; details: for induction of T cell differentiation (qualitative): induction assay in vitro, no concentration stated
# Experimental: (§1) to determine the activity and characteristics of the polypeptide, determinations were carried out on healthy 5-6 week old nu/nu mice of both sexes, the mice being bred on a BALB/c background (thymocytes expressing Thy-1.2 surface antigen) and maintained under conventional conditions. For the antisera, anti Thy-1.2 sera were prepared in Thy-1 congenic mice.
# (§2) For the induction of in vitro of Thy-1^+ T cell or CR^+ B cell differentiation, the induction of thymocyte differentiation from prothymocytes in vitro was performed as described by Komuro and Boyse, (Lancet 1, 740, 1973), using the acquisition of Thy-1.2 as a marker of T cell differentiation. The induction of CR^+ B cell differentiation from CR^- B cell precursors in vitro was performed under similar conditions using as the assay criterion, the capacity of CR^+ B cells to bind sheep erythrocytes coated with subagglutinating quantities of rabbit antibody and nonlytic complement. Spleen cell populations from healthy nu/nu mice fractionated on discontinuous bovine serium albumin gradients were used as the source of both precursor types (Thy-1 and […]) because they have few or no Thy-1^+ cells and low numbers of CR^+ cells.
# [2] = system: CR+ B cell differentiation from CR- B cell precursors (spleen cell populations from nu/nu mice); assay: induction in vitro of CR+ B cell differentiation from CR- B cell precursors (binding of sheep erythrocytes coated with antibody and complement); type: cell-based
# Experimental: as §1, §2
sequence,measurement,setting,value
"GEQRKDVYVQLYL [tridecapeptide, H2 N--Gly--Glu--Gln--Arg--Lys--Asp--Val--Tyr--Val--Gln--Leu--Tyr--Leu--COOH]",concentration from which the polypeptide is maximally active,[1]; in vitro,about 100 nanogram per ml
same,concentration from which the polypeptide is active,"[1]; in vitro, lower end of active concentrations",1 nanogram per ml
same,induction of T cell differentiation (qualitative),[1]; listed as polypeptide,inducing the differentiation of T-lymphocytes
same,induction of T cell differentiation (qualitative),[1]; listed as synthetic peptide,induced the differentiation
same,induction of differentiation of CR+ B cells,"[2]; in vitro, concentrations 0.01 ng to 10 μg/ml",does not induce; also recorded: did not induce
same,induction of CR+ B cell differentiation (qualitative),"[2]; induction assay in vitro, no concentration stated, listed as synthetic peptide",did not induce
